Results as given in patent US6028170A, “Analogs of hirudin” (Baxter International Inc., priority 1998, dated 2000).

Biological target: T1, human alpha-thrombin (Homo sapiens, UniProt P00734)
T1 construct: were reacted with 1.3 picomoles of human alpha-thrombin
Test: Thrombin inhibition, residual amidolysis of chromogenic substrate S-2238
Type: biochemical
Conditions: 0.13-1.3 picomoles hirudin with 1.3 picomoles human alpha-thrombin, 0.05 M Tris-HCl pH 7.4, 0.1% BSA, 1 hour at 22° C.
Protocol: Aliquots of the supernatants were diluted with the Tris-BSA buffer and the reaction initiated by addition of S-2238. Reaction velocities were monitored at 410 nanometers and used to determine thrombin activity. Moles of hirudin analog and its derivatives in each assay were determined by radioiodinated hirudin analog tracer.

Thrombin Inhibition (Specific Activity: % of H-Tyr): 100 % of H-Tyr
Substance: rHV2 Phe^3 Gln^33 Tyr^35 Lys^47 Asp^63 [H-Tyr]
